Source: patent US20260078119A1, “DEGRADER COMPOUNDS AND USES THEREOF” (Bristol-Myers Squibb Company, priority 2024, published 2026)

Experiments:
FAK = target: T1, FAK (Homo sapiens, UniProt Q05397); assay: FAK-HiBiT Degradation Assay; type: cell-based; details: for DC50: JHH-4-FAK-HiBiT clone d01 cells, two hours incubation, 10-point dose response, 3-fold dilution starting at 1 μM, Nano-Glo HiBiT luminescence, read-out: FAK HiBiT EC50; for FAK HiBiT Ymin: lower limit of the four parameter fit (value A), Ymax derived using DMSO control, JHH-4-FAK-HiBiT cells, two hours
T1 construct: homozygous knock-in of a HiBiT tag (Promega Corporation, Madison, WI) to the C-terminus of the FAK gene in its natural genomic locus; endogenous in cells; host or cells: JHH-4-FAK-HiBiT clone d01 (CRISPR-Cas9 knock-in at the endogenous locus)
T1 sequence (Q05397 whole entry): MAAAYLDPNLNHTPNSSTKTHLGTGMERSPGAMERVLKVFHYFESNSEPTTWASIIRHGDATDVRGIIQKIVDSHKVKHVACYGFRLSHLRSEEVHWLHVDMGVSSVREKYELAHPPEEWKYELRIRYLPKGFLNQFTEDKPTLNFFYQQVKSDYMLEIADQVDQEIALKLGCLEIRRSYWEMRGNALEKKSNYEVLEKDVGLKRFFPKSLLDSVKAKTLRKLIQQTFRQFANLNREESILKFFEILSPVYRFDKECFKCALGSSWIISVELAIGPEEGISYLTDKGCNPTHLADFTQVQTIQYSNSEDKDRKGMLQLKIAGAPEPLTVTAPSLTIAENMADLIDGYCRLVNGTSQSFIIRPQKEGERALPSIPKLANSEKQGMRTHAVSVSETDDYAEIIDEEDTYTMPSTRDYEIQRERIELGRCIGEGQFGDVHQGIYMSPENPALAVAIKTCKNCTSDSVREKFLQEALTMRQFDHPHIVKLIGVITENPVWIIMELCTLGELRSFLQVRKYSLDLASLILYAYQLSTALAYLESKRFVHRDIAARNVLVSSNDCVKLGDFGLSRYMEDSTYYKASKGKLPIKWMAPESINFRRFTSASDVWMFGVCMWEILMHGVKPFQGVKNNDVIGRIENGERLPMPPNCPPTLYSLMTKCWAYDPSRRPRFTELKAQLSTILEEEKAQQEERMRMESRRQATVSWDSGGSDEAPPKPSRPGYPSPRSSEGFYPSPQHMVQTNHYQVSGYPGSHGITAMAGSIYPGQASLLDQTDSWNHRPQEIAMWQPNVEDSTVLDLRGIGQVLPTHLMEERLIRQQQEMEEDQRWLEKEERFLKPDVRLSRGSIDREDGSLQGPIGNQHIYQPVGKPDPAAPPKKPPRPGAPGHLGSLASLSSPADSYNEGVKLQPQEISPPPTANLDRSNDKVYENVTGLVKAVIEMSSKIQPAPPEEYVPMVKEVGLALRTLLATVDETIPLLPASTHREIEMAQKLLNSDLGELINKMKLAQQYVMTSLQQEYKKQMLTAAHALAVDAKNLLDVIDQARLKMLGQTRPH
In short: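 JHH-4 cells with homozygous CRISPR knock-in of C-terminal HiBiT on endogenous FAK, treated 2 h at 37 °C with compounds in 10-point 3-fold series from 1 μM. HiBiT lytic luminescence read; EC50 from four-parameter logistic fit, Ymax set by DMSO control, Ymin as lower fit limit.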

CAL-51 cells = assay: CAL-51 Cell Proliferation Assay; type: cell-based; details: for EC50: Homo sapiens, 120 hours incubation, 10-point dose response, 4-fold dilutions starting at 10 μM, Cell-Titer-Glo, read-out: CAL-51 Prolif EC50; for CAL-51 Prolif Ymin: minimal percent of DMSO control observed in the concentrations tested (Ymin-obs), 120 hours
In short: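 Cells seeded at 350/well in RPMI complete medium onto 10-point, 4-fold compound dilutions from 10 μM (0.1% DMSO), in duplicate, and grown 120 h at 37 °C. CellTiter-Glo luminescence, blank-subtracted and normalised to DMSO, was fitted with a four-parameter logistic to give EC50; Ymin-obs is the lowest observed percent of DMSO control.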

| DC50 (FAK) | FAK HiBiT Ymin (FAK) | SMILES | EC50 (CAL-51 cells) | CAL-51 Prolif Ymin (CAL-51 cells) |
| --- | --- | --- | --- | --- |
| 13.4 nM | 8.18 | O=C1CCC(N2Cc3cc(Cn4ncc5c(-c6ncccc6Cl)cc(N6CC(F)C6)nc54)ccc3C2=O)C(=O)N1 (centres unmarked) [Example 89, 3-(5-{[4-(3-chloropyridin-2-yl)-6-(3-fluoroazetidin-1-yl)-1H-pyrazolo[3,4-b]pyridin-1-yl]methyl}-1-oxo-2,3-dihydro-1H-isoindol-2-yl)piperidine-2,6-dione] | 6.69 nM | 24.94 |
| ≥ 1000 nM | 96.76 | CN1CCN(c2cc(-c3ncc(C(F)(F)F)cc3Cl)c3cnn(Cc4ccc5c(c4)CN([C@H]4CCC(=O)NC4=O)C5=O)c3n2)CC1 [Example 136, (3S)-3-[5-({4-[3-chloro-5-(trifluoromethyl)pyridin-2-yl]-6-(4-methylpiperazin-1-yl)-1H-pyrazolo[3,4-b]pyridin-1-yl}methyl)-1-oxo-2,3-dihydro-1H-isoindol-2-yl]piperidine-2,6-dione] | ≥ 10000 nM | 95.61 |
| ≥ 1000 nM | 89.82 | O=C1CCC(N2Cc3cc(Cn4ncc5c(-c6ncc(C(F)(F)F)cc6Cl)cc(N[C@H]6CCOC6)nc54)ccc3C2=O)C(=O)N1 (stereo partly drawn) [Example 132, 3-[5-({4-[3-chloro-5-(trifluoromethyl)pyridin-2-yl]-6-{[(3S)-oxolan-3-yl]amino}-1H-pyrazolo[3,4-b]pyridin-1-yl}methyl)-1-oxo-2,3-dihydro-1H-isoindol-2-yl]piperidine-2,6-dione] | 0.1 nM | 89.52 |

The next lines start with the compound.

| SMILES | DC50 (FAK) | FAK HiBiT Ymin (FAK) | EC50 (CAL-51 cells) | CAL-51 Prolif Ymin (CAL-51 cells) |
| --- | --- | --- | --- | --- |
| CC(C)Oc1cnc(-c2cc(N3CC(F)C3)nc3c2cnn3Cc2ccc3c(c2)CN([C@H]2CCC(=O)NC2=O)C3=O)c(Cl)c1 [Example 54, (3S)-3-[5-({4-[3-chloro-5-(propan-2-yloxy)pyridin-2-yl]-6-(3-fluoroazetidin-1-yl)-1H-pyrazolo[3,4-b]pyridin-1-yl}methyl)-1-oxo-2,3-dihydro-1H-isoindol-2-yl]piperidine-2,6-dione] | 2.47 nM | 6.69 | 0.73 nM | 25.81 |
| N#Cc1ccc(-c2c(F)c(N3CC(F)C3)nc3c2cnn3Cc2ccc3c(c2)CN([C@H]2CCC(=O)NC2=O)C3=O)nc1 [Example 75, 6-[1-({2-[(3S)-2,6-dioxopiperidin-3-yl]-1-oxo-2,3-dihydro-1H-isoindol-5-yl}methyl)-5-fluoro-6-(3-fluoroazetidin-1-yl)-1H-pyrazolo[3,4-b]pyridin-4-yl]pyridine-3-carbonitrile] | 7.95 nM | 23.15 | 9.67 nM | 52.27 |
| O=C1CCC(N2Cc3cc(Cn4ncc5c(-c6ncccc6Cl)c(F)c(N6CC(F)C6)nc54)ccc3C2=O)C(=O)N1 (centres unmarked) [Example 36, 3-(5-{[4-(3-chloropyridin-2-yl)-5-fluoro-6-(3-fluoroazetidin-1-yl)-1H-pyrazolo[3,4-b]pyridin-1-yl]methyl}-1-oxo-2,3-dihydro-1H-isoindol-2-yl)piperidine-2,6-dione] | 0.98 nM | 8.36 | 0.5 nM | 24.38 |
| O=C1CC[C@@H](N2Cc3cc(Cn4ncc5c(-c6ncc(C(F)(F)F)cc6Cl)cc(N6CC(F)C6)nc54)ccc3C2=O)C(=O)N1 (single isomer, unassigned) [Example 87] | 13 nM | 5.32 | 2.17 nM | 38.15 |
| O=C1CC[C@@H](N2Cc3cc(Cn4ncc5c(-c6ncc(C(F)(F)F)cc6Cl)c(F)c(N6CC(F)C6)nc54)ccc3C2=O)C(=O)N1 (single isomer, unassigned) [Example 78] | 8.4 nM | 5.59 | 1.76 nM | 24.33 |
